Assay results taken from patent US20250368627A1, “PYRAZOLESULFONAMIDES AS ANTITUMOR AGENTS” (Peloton Therapeutics, Inc., a fully owned subsidiary of …, priority 2019, published 2025).

How the values were obtained:
[1] = target: T1, DDB1DB/DCAF15 and RBM39 R1R2 complex (Homo sapiens, UniProt Q14498+Q66K64); assay: DCAF15 RBM39 Complex Formation Assay (FRET); format: binding; details: FRET ratio Em 665/Em 615, incubated overnight at 4° C.
T1 construct: Amino acids 150 to 331 of RBM39 were cloned into pGEX4T3; GST (from vector pGEX4T3); TEV cleavage site (N); made in house; host or cells: DDB1DB/His-DCAF15: baculovirus/Sf9 co-expression; RBM39 R1R2: E. coli (pGEX4T3)
T1 sequence (Q66K64 whole entry, the tested form may be a part): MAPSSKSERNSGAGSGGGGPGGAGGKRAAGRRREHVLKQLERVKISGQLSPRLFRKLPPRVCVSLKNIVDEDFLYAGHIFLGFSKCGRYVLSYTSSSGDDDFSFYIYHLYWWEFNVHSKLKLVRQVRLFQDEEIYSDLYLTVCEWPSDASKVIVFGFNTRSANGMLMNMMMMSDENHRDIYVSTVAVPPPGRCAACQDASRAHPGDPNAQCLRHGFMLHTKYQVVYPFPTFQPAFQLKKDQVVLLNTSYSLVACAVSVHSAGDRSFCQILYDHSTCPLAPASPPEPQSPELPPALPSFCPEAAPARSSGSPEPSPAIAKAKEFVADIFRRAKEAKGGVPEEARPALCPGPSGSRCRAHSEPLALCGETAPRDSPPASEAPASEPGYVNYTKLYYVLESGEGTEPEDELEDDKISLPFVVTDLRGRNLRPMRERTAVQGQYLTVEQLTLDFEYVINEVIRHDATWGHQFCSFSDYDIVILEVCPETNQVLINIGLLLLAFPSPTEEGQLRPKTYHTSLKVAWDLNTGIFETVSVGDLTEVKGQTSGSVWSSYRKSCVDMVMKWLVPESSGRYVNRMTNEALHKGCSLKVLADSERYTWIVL
T1 sequence (Q14498 150-331): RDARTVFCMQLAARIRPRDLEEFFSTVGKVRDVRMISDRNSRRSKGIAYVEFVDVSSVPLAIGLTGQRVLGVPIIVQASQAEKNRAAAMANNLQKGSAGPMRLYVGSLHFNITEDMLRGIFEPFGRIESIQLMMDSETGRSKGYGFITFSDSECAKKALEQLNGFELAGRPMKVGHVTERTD
T1 sequence (Q16531 with tags, fused parts or gaps DEL396-708 partner): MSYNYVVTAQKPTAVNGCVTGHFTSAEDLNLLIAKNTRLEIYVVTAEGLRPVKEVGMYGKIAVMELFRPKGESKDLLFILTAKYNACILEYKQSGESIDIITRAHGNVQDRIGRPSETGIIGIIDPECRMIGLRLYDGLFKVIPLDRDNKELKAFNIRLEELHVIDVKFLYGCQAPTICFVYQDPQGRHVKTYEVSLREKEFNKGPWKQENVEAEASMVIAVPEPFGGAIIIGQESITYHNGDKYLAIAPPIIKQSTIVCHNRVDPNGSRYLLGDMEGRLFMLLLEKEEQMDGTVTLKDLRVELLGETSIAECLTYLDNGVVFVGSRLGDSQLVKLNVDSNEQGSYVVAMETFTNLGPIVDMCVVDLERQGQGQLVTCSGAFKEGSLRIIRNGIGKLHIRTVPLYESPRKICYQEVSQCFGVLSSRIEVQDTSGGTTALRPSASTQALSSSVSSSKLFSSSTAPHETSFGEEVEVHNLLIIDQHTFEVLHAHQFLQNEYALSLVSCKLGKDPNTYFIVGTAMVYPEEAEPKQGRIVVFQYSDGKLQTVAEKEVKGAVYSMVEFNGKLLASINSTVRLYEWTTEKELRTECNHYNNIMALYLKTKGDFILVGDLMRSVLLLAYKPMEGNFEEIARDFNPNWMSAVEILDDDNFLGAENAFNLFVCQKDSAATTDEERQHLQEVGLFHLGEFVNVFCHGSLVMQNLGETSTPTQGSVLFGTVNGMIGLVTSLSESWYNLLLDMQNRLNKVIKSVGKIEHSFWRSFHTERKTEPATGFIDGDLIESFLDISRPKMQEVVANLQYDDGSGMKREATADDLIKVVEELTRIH
Text: LANCE Eu-W1024 Anti-6×His and SureLight Allophycocyanin-anti-FLAG antibodies were purchased from Perkin Elmer. Human DDB1DB and His-tagged DCAF15 were co-expressed in baculovirus/sf9 system. While full length DDB1 contains three 7-bladed propellers termed A, B, and C, DDB1DB has only propeller A (amino acids 1 to 395) and C (amino acids 709-1140). The His-tagged DCAF15 contains six histidine residues directly preceding the DCAF15 sequence without any linker. An RBM39 fragment containing RRM1 and RRM2 was expressed in E. coli. Amino acids 150 to 331 of RBM39 were cloned into pGEX4T3 with an N-terminal TEV cleavage site and a C-terminal FLAG tag.
A compound of the present disclosure in DMSO (2 μL) was transferred to a 384-well assay plate. Compound was added in 14 points, 3-fold serial dilution (1 μM to 0.6 pico molar) in DMSO. […] FRET assay buffer (25 mM HEPES, pH 7.5, 100 mM NaCl, […], 0.5 mM TCEP, 0.005% Tween-20, 0.2 nM Eu—W1024 Anti-6×His, 50 nM SureLight Allophycocyanin-anti-FLAG, 20 nM DDB1DB/DCAF15, 50 nM RBM39 R1R2) was added and the resulting solution was incubated overnight at 4° C. The plate was placed in a plate reader (Spark 10) with excitation at 1=340 nm and emissions monitored at 1=665 nm and 1=615 nm, and the FRET ratio (Em 665/Em 615) was determined. Low signal controls containing no compound and high signal controls containing 10 mM indisulam were measured for each plate.
EC50 values were calculated using Dotmatics template equation for 4-parameter fit. Results are expressed as % formation using the following equation: […]

[2] = test system: HCT116 human colorectal carcinoma cells; assay: CellTiter-Glo Luminescent Cell Viability Assay; format: cell-based; details: HCT-116, 72 h, 3 days
Method: HCT116 human colorectal carcinoma cells were used in these experiments. HCT116 cells were obtained from ATCC. CellTiter-Glo® Luminescent Cell Viability Assay Reagent was obtained from Promega.
About 3,000 cells were seeded into 96-well plate with […] of media (DMEM supplemented with 10% FBS, 100 units penicillin, and […] streptomycin per mL) the day before the experiment. For compound treatment, the master plate was prepared as follows: 100× compound stocks were prepared in a 96-well plate by 1 to 3 serial dilutions of 0.5 mM DMSO stocks. Each master plate contained serial dilution of 8 compounds, including the control compound E7820. […] of 100× compound stock was added to each well of the assay plate to give final concentrations of […]. Each concentration was tested in triplicate. After 3 days, cell viability was determined using CellTiter-Glo Luminescent Cell Viability Assay Reagent following the manufacturer's recommended protocol. Briefly, […] of CellTiter-Glo reagent was added to each well of the assay plate and the contents were mixed for 3 minutes at 600 rpm on a shaker (Thermomixer R). The plate was immediately placed in a plate reader (Synergy 2) and the luminescence signal (0.5 second per well integration time) was determined. IC50 values were calculated using Dotmatics software.

| IC50 [1] [nM] | EC50 [2] [nM] | Compound |
| --- | --- | --- |
| < 250 | 250 to 1000 | N#Cc1c[nH]c2c(NS(=O)(=O)c3cnn(C(F)F)c3)ccc(F)c12 [Compound 215, N-(3-cyano-4-fluoro-1H-indol-7-yl)-1-(difluoromethyl)pyrazole-4-sulfonamide] |
| < 250 | < 250 | Cc1ccc(NS(=O)(=O)c2cnn(C(C)(C)CO)c2Cl)c2[nH]cc(C#N)c12 [Compound 244, 5-chloro-N-(3-cyano-4-methyl-1H-indol-7-yl)-1-(2-hydroxy-1,1-dimethyl-ethyl)pyrazole-4-sulfonamide] |
| < 250 | 250 to 1000 | CCn1cc(S(=O)(=O)Nc2ccc(F)c3c(C#N)c[nH]c23)cn1 [Compound 217, N-(3-cyano-4-fluoro-1H-indol-7-yl)-1-ethyl-pyrazole-4-sulfonamide] |
| < 250 | > 1000 | N#Cc1c[nH]c2c(NS(=O)(=O)c3cn[nH]c3)ccc(F)c12 [Compound 214, N-(3-cyano-4-fluoro-1H-indol-7-yl)-1H-pyrazole-4-sulfonamide] |
| < 250 | < 250 | CC(C)(CCO)n1cc(S(=O)(=O)Nc2ccc(Cl)c3c(C#N)c[nH]c23)cn1 [Compound 230, N-(4-chloro-3-cyano-1H-indol-7-yl)-1-(3-hydroxy-1,1-dimethyl-propyl)pyrazole-4-sulfonamide] |
| > 1000 | – | O=S(=O)(c1cnn(CC2CC2)c1)N(CC1CC1)c1cccc2c(Cl)c[nH]c12 [Compound 48, N-(3-chloro-1H-indol-7-yl)-N,1-bis(cyclopropylmethyl)pyrazole-4-sulfonamide] |
| < 250 | > 1000 | CC(C)(C(N)=O)n1cc(S(=O)(=O)Nc2ccc(F)c3c(C#N)c[nH]c23)cn1 [Compound 240, 2-[4-[(3-cyano-4-fluoro-1H-indol-7-yl)sulfamoyl]pyrazol-1-yl]-2-methyl-propanamide] |
| < 250 | 250 to 1000 | Cc1ccc(NS(=O)(=O)c2cnn(C3CC(F)(F)C3)c2)c2[nH]cc(C#N)c12 [Compound 109, N-(3-cyano-4-methyl-1H-indol-7-yl)-1-(3,3-difluorocyclobutyl)pyrazole-4-sulfonamide] |
| < 250 | 250 to 1000 | C[C@H](CO)n1cc(S(=O)(=O)Nc2ccc(F)c3c(C#N)c[nH]c23)cn1 [Compound 212, (R)—N-(3-cyano-4-fluoro-1H-indol-7-yl)-1-(1-hydroxypropan-2-yl)-1H-pyrazole-4-sulfonamide] |
| < 250 | > 1000 | O=S(=O)(Nc1cccc2c(Cl)c[nH]c12)c1cnn(CC2CC(F)(F)C2)c1 [Compound 53, N-(3-chloro-1H-indol-7-yl)-1-[(3,3-difluorocyclobutyl)methyl]pyrazole-4-sulfonamide] |
| < 250 | 250 to 1000 | O=S(=O)(Nc1cccc2c(Cl)c[nH]c12)c1cnn(CCO)c1 [Compound 13, N-(3-chloro-1H-indol-7-yl)-1-(2-hydroxyethyl)pyrazole-4-sulfonamide] |
| < 250 | 250 to 1000 | Cc1ccc(NS(=O)(=O)c2cnn(CC3(C#N)CC3)c2)c2[nH]cc(C#N)c12 [Compound 145, N-(3-cyano-4-methyl-1H-indol-7-yl)-1-((1-cyanocyclopropyl)methyl)-1H-pyrazole-4-sulfonamide] |
| 250 to 1000 | > 1000 | COCCOCCOCCn1cc(S(=O)(=O)Nc2cccc3c(Cl)c[nH]c23)cn1 [Compound 24, N-(3-chloro-1H-indol-7-yl)-1-[2-[2-(2-methoxyethoxy)ethoxy)ethyl]pyrazole-4-sulfonamide] |
| < 250 | 250 to 1000 | C[C@H](CO)n1cc(S(=O)(=O)Nc2ccc(Cl)c3c(C#N)c[nH]c23)cn1 [Compound 208, (R)—N-(4-chloro-3-cyano-1H-indol-7-yl)-1-(1-hydroxypropan-2-yl)-1H-pyrazole-4-sulfonamide] |
| < 250 | 250 to 1000 | CCn1cc(S(=O)(=O)Nc2ccc(Cl)c3c(C#N)c[nH]c23)cn1 [Compound 127, N-(4-chloro-3-cyano-1H-indol-7-yl)-1-ethyl-pyrazole-4-sulfonamide] |
| < 250 | – | N#Cc1n[nH]c2c(NS(=O)(=O)c3cnn([C@H](CO)CF)c3)ccc(Cl)c12 [Compound 310, N-(4-chloro-3-cyano-1H-indazol-7-yl)-1-[(1R)-1-(fluoromethyl)-2-hydroxy-ethyl]pyrazole-4-sulfonamide] |
| > 1000 | – | O=S1(=O)CC(n2cc(S(=O)(=O)Nc3cccc4c(Cl)c[nH]c34)cn2)C1 [Compound 58, N-(3-chloro-1H-indol-7-yl)-1-(1,1-dioxothietan-3-yl)pyrazole-4-sulfonamide] |
| < 250 | – | O=S(=O)(Nc1cccc2c(Cl)c[nH]c12)c1cnn(C2CCOC2)c1 (centres unmarked) [Compound 8, N-(3-chloro-1H-indol-7-yl)-1-tetrahydrofuran-3-yl-pyrazole-4-sulfonamide] |
| > 1000 | – | Cn1cc(S(=O)(=O)Nc2ccc(F)c3cc[nH]c23)cn1 [Compound 55, N-(4-fluoro-1H-indol-7-yl)-1-methyl-pyrazole-4-sulfonamide] |
| < 250 | – | Cc1ccc(NS(=O)(=O)c2cnn(C(C)(C)CO)c2N)c2[nH]cc(C#N)c12 [Compound 315, 5-amino-N-(3-cyano-4-methyl-1H-indol-7-yl)-1-(2-hydroxy-1,1-dimethyl-ethyl)pyrazole-4-sulfonamide] |
| 250 to 1000 | – | Cc1nn(C)cc1S(=O)(=O)Nc1cccc2c(Cl)c[nH]c12 [Compound 5, N-(3-chloro-1H-indol-7-yl)-1,3-dimethyl-pyrazole-4-sulfonamide] |
| > 1000 | – | Cc1nn(C)c(C)c1S(=O)(=O)Nc1cccc2c(Cl)c[nH]c12 [Compound 2, N-(3-chloro-1H-indol-7-yl)-1,3,5-trimethyl-pyrazole-4-sulfonamide] |
| < 250 | – | Cc1ccc(NS(=O)(=O)c2cnn([C@H](CO)CF)c2)c2[nH]cc(C#N)c12 [Compound 313, N-(3-cyano-4-methyl-1H-indol-7-yl)-1-[(1R)-1-(fluoromethyl)-2-hydroxy-ethyl]pyrazole-4-sulfonamide] |
| > 1000 | – | COCCN(c1cccc2c(Cl)c[nH]c12)S(=O)(=O)c1cnn(CCOC)c1 [Compound 50, N-(3-chloro-1H-indol-7-yl)-N,1-bis(2-methoxyethyl)pyrazole-4-sulfonamide] |
| < 250 | – | CCn1cc(S(=O)(=O)Nc2cccc3c(Cl)c[nH]c23)cn1 [Compound 4, N-(3-chloro-1H-indol-7-yl)-1-ethyl-pyrazole-4-sulfonamide] |
| < 250 | – | CC(C)(CO)n1ncc(S(=O)(=O)Nc2ccc(Cl)c3c(C#N)c[nH]c23)c1N [Compound 316, 5-amino-N-(4-chloro-3-cyano-1H-indol-7-yl)-1-(2-hydroxy-1,1-dimethyl-ethyl)pyrazole-4-sulfonamide] |
| 250 to 1000 | – | Cc1ccc(NS(=O)(=O)c2cnn(C)c2C#N)c2[nH]cc(C#N)c12 [Compound 131, 5-cyano-N-(3-cyano-4-methyl-1H-indol-7-yl)-1-methyl-pyrazole-4-sulfonamide] |
| 250 to 1000 | – | Cn1ncc(S(=O)(=O)Nc2ccc(Cl)c3c(C#N)c[nH]c23)c1C#N [Compound 132, N-(4-chloro-3-cyano-1H-indol-7-yl)-5-cyano-1-methyl-pyrazole-4-sulfonamide] |
| < 250 | – | O=S(=O)(Nc1cccc2c(Cl)c[nH]c12)c1cn[nH]c1 [Compound 10, N-(3-chloro-1H-indol-7-yl)-1H-pyrazole-4-sulfonamide] |
| < 250 | – | Cc1ccc(NS(=O)(=O)c2cnn([C@H](CO)CF)c2)c2[nH]nc(C#N)c12 [Compound 314, N-(3-cyano-4-methyl-1H-indazol-7-yl)-1-[(1R)-1-(fluoromethyl)-2-hydroxy-ethyl]pyrazole-4-sulfonamide] |
